Data reported in ChEMBL document CHEMBL1159002, “Westiellamide, a bistratamide-related cyclic peptide from the blue-green alga Westiellopsis prolifica” (J Nat Prod, 1992).
The source made the active and inactive calls. No cut-off for these calls is given here.

Legend:
Type in all cases: functional, cell-based
[1] = tested on: L1210; assay: Cytotoxicity against mouse L1210 cells by agar disk diffusion assay
[2] = tested on: KB; assay: Cytotoxicity against human KB cells at 2 ug/ml
[3] = tested on: LoVo; assay: Cytotoxicity against human LoVo cells at 2 ug/ml

`CC(C)[C@@H]1NC(=O)[C@H]2N=C(O[C@@H]2C)[C@H](C(C)C)NC(=O)[C@H]2N=C(O[C@@H]2C)[C@H](C(C)C)NC(=O)[C@H]2N=C1O[C@@H]2C` was tested, and the Activity [1] was “inactive”, the Activity [2] was “Active” and the Activity [3] was “Active”.
